Source: patent US9351492B2, “Anti-biofilm compositions and methods for using” (priority 2010, dated 2016)

What was measured:
[1] = test system: Staphylococcus aureus; assay: MIC, CLSI broth microdilution (growth inhibition); type: cell-based; settings: doses 25-2000 μM
Experimental: (§1) For all assays, overnight cultures grown in the appropriate medium were used to inoculate fresh medium at an initial cell density of 5×10^5 colony-forming units (CFU) per ml. Cell density was confirmed by colony count of aliquots taken immediately following inoculation of the test strain.
Briefly, test strains were inoculated into 0.1 ml CAMHB containing 220D-F2 at concentrations ranging from 0.138-4 mg/ml (0.138-4% excipient in solution). For the MIC, optical density (OD600) was assessed immediately after inoculation and again after 18 hrs using a Biotek Synergy II microplate reader. Corrections for extract color, which can alter the OD output, were done as previously described (Quave et al., 2008, supra). […] The MBC was determined by taking colony counts of aliquots taken from each well after 24 hrs and it was defined as the lowest concentration at which the initial density of viable cells was reduced by ≧90% (for MBC90) or ≧50% (for MBC50) by comparison to the untreated control. […] For these experiments, 10 ml cultures were grown at 37° C. in 25 ml Erlenmeyer flasks in BM with constant shaking (200 rpm).
(§2) Ten commercially available phytochemical constituents reported in the literature to have been isolated from R. ulmifolius (Table 4) were purchased and examined for their prophylactic efficacy in the prevention of biofilm formation using a static microtiter plate biofilm assay. Ferulic acid, kaempferol, ursolic acid, quercetin dehydrate, caffeic acid, ellagic acid, and oleanolic acid were purchased from MP BioMedicals (Solon, Ohio, USA); quercetin-3-O-glucuronide and tiliroside from Chromadex (Irvine, Calif., USA); and gallic acid from Acros Organics (NJ, USA). Compounds were tested for growth and biofilm inhibitory activity at doses ranging from 25-2000 μM. To determine the minimum inhibitory concentration (MIC) for each fraction, strains of S. aureus were grown in 37° C. in cation adjusted Muller-Hinton broth (CAMHB). MIC and MBC were determined following Clinical and Laboratory Standards Institute […] broth microdilution guidelines. Briefly, strains were inoculated into 0.1 ml CAMBH containing varying concentrations of the compound. For MIC, optical density (OD600) was assessed immediately after inoculation and again after 18 hours using Biotek Synergy II microplate reader. The MIC was defined as the lowest concentration that inhibited growth to a level greater than or equal to 90% (for MIC90) or greater than or equal to 50% (for MIC50) by comparison to untreated cultures.

[2] = test system: Staphylococcus aureus; type: cell-based; settings: for Biofilm Formation MBIC50 / Biofilm Formation MBIC90: doses 25-2000 μM
Experimental: as §1
Biofilm formation was assessed using a microtiter plate assay as previously described (Beenken et al., 2003, Infection and Immunity 71:4206-11) except that 2-fold serial dilutions (0.0125-0.4 mg/ml, 0.0125-0.4% excipient in solution) of 220D-F2 were included in the BM. Controls for each experiment were the wild-type strain and its isogenic sarA mutant assayed in the absence of 220D-F2. The minimum biofilm inhibiting concentration (MBIC) was defined as the lowest concentration at which 220D-F2 inhibited biofilm formation to a level ≧90% (for MBIC90) or ≧50% (for MBIC50) than that observed with the parent strain in the absence of 220D-F2. […]
as §2

[3] = test system: Staphylococcus aureus; settings: Durig et al. 2010; cited from earlier work
[4] = test system: UAMS-1; assay: in vitro catheter assay, established biofilm; type: cell-based, Staphylococcus aureus; settings: catheters colonized without extract; 220D-F2 0.2 mg/ml, daptomycin 10 μg/ml (10× breakpoint MIC)
Experimental: UAMS-1 was grown on 1 cm catheter segments as previously described (Weiss et al., 2009b, Antimicrobial Agents and Chemotherapy 53:2475-2482). After 24 hrs, the BM medium was replaced with BM medium containing 220D-F2 (0.2 mg/ml) and/or daptomycin. […] The medium was replaced in its entirety at 24 hr intervals for 7 days. The therapeutic response of UAMS-1 to daptomycin in the presence of 220D-F2 was assessed by comparison to UAMS-929 grown in the absence of 220D-F2 but exposed to daptomycin as previously described (Weiss et al., 2009a, 2009b, supra). […] After each 24 h interval, catheters were removed from each treatment group and rinsed with PBS before removing bacteria for plate counts as previously described (Weiss et al., 2009a, 2009b, supra).
This assay was also used to assess the prophylactic activity of 220D-F2. In this case, the test compounds were added to the BM at the time of inoculation rather than after a 24 hr colonization period. After 24 hr incubation in the presence of 220D-F2, the catheters were processed for plate counts as described above.
Catheters were colonized with UAMS-1 in the absence of any extract. […] The antibiotics tested were daptomycin, clindamycin, vancomycin, and oxacillin.

Compound	Growth MBIC50 [1]	Growth MBIC90 [1]	Biofilm Formation MBIC50 [2]	Biofilm Formation MBIC90 [2]	anti-biofilm activity at doses well below any growth inhibitory effects ([2]; among 10 phytochemicals)	biofilm inhibition of S. aureus, previous studies [3]	average colony counts at day 7 [4]
O=C(O)/C=C/c1ccc(O)c(O)c1 [Caffeic Acid]	>2000 µM	>2000 µM	>2000 µM	>2000 µM	–	–	–
O=C(O)c1cc(O)c(O)c(O)c1 [Gallic Acid]	>2000 µM	>2000 µM	713 ± 32 µM	2010 ± 10 µM	–	–	–
O=c1c(O)c(-c2ccc(O)c(O)c2)oc2cc(O)cc(O)c12 [Quercetin Dihydrate]	1720 ± 20 µM	1903 ± 29 µM	543 ± 21 µM	1987 ± 21 µM	–	–	–
Ursolic Acid	640 ± 46 µM	763 ± 32 µM	207 ± 32 µM	397 ± 6 µM	–	–	–
O=c1oc2c(O)c(O)cc3c(=O)oc4c(O)c(O)cc1c4c23 [Ellagic Acid]	>2000 µM	>2000 µM	38 ± 13 µM	763 ± 32 µM	meaningful anti-biofilm activity	not an effective biofilm inhibitor	–
Oleanolic Acid	1077 ± 15 µM	1613 ± 31 µM	190 ± 26 µM	940 ± 35 µM	–	–	–
O=c1c(O)c(-c2ccc(O)cc2)oc2cc(O)cc(O)c12 [Kaempferol]	1640 ± 10 µM	1787 ± 42 µM	560 ± 53 µM	773 ± 6 µM	–	–	–
CCCCCCCCCC(=O)N[C@@H](Cc1c[nH]c2ccccc12)C(=O)N[C@H](CC(N)=O)C(=O)N[C@@H](CC(=O)O)C(=O)N[C@@H]1C(=O)NCC(=O)N[C@@H](CCCN)C(=O)N[C@@H](CC(=O)O)C(=O)N[C@H](C)C(=O)N[C@@H](CC(=O)O)C(=O)NCC(=O)N[C@H](CO)C(=O)N[C@@H]([C@H](C)CC(=O)O)C(=O)N[C@@H](CC(=O)c2ccccc2N)C(=O)O[C@@H]1C [daptomycin]	–	–	–	–	–	–	1.01×10^7 CFU/catheter
O=C(/C=C/c1ccc(O)cc1)OC[C@H]1O[C@@H](Oc2c(-c3ccc(O)cc3)oc3cc(O)cc(O)c3c2=O)[C@H](O)[C@@H](O)[C@@H]1O [Tiliroside]	>2000 µM	>2000 µM	>2000 µM	>2000 µM	–	–	–
O=C(O)[C@H]1OC(Oc2c(-c3ccc(O)c(O)c3)oc3cc(O)cc(O)c3c2=O)[C@H](O)[C@@H](O)[C@@H]1O (stereo partly drawn) [Quercetin-3-O-glucuronide]	>2000 µM	>2000 µM	>2000 µM	>2000 µM	–	–	–
